“And” between values parts separate entries of the source, which are not always exact repeats. Equal values may be shown once.
Assays:
[1] = system: tumour cells; conditions: cited from earlier work
[2] = system: Ehrlich ascites cells; test: Ehrlich ascites tumour in mice, test substance in drinking water (Example 2); type: in vivo, adult female white Swiss mice; parameters: average weight of the tumours / weight of the excised tissues (tumour): unit not given here
Experimental: 30 adult female white Swiss mice were inoculated behind the right foreleg on the ventral side with about 5 x 10^6 Ehrlich ascites cells in 0.2 ml of physiological saline. The mice were randomized and divided into three groups, each group containing 10 animals. All animals received water to drink during days 1 and 2. On day 3, the water of one group (Group B) was replaced by a 0.05 molar solution of glyoxal whilst the water of another group (Group C) was replaced by a 0.05 molar solution of a glyoxal-cysteine adduct prepared essentially as described in Example 1. The third, or control, group (Group A) continued to receive water. All groups could drink ad libidum.
No weight loss was observed.
All animals were narcotized and their tumours excised and cleaned from the surrounding tissues.
In the cases where the tumour which developed was slightly ascitic, the fluid was not weighed and this is believed to account for the rather lower weight of these tumours.

SMILES	toxicity to cells of normal tissues [1]	toxic symptoms or loss of weight ([2]; after 7 days, 0.05 molar solution as drinking water)	size or form of the tumour on visual inspection ([2]; after 7 days, compared with control group)	inhibition over the control ([2]; from average tumour weights, 0.05 molar solution as drinking water)	average weight of the tumours ([2]; group of 10 mice, 0.05 molar solution as drinking water from day 3, control group average 1200)	weight of the excised tissues (tumour) ([2]; individual animals, 0.05 molar solution as drinking water from day 3, ad libitum, excised after 7 days, * = slightly ascitic tumour, fluid not weighed)
CC(O)C=CC=O (stereo not drawn) [4-hydroxypentenal]	only slightly toxic					
O=CC=O [glyoxal]		no toxic symptoms or loss of weight	No significant decrease	about 18%	985	800 and 530 and 190 and 90* and 1270 and 330 and 1220 and 1700 and 2740 and 980
